Measured values from patent US12187723B2 (BRISTOL-MYERS SQUIBB COMPANY, priority 2019, dated 2025).

What was measured:
human TLR7 = target: T1, human TLR7 (Homo sapiens, UniProt Q9NYK1); assay: TLR7 inhibition reporter assay (HEK-Blue SEAP); type: cell-based; settings: HEK-Blue cells overexpressing human TLR7, gardiquimod 7.5 μM, 22 hour incubation
T1 construct: host or cells: HEK-Blue cells
T1 sequence (Q9NYK1 27-1049): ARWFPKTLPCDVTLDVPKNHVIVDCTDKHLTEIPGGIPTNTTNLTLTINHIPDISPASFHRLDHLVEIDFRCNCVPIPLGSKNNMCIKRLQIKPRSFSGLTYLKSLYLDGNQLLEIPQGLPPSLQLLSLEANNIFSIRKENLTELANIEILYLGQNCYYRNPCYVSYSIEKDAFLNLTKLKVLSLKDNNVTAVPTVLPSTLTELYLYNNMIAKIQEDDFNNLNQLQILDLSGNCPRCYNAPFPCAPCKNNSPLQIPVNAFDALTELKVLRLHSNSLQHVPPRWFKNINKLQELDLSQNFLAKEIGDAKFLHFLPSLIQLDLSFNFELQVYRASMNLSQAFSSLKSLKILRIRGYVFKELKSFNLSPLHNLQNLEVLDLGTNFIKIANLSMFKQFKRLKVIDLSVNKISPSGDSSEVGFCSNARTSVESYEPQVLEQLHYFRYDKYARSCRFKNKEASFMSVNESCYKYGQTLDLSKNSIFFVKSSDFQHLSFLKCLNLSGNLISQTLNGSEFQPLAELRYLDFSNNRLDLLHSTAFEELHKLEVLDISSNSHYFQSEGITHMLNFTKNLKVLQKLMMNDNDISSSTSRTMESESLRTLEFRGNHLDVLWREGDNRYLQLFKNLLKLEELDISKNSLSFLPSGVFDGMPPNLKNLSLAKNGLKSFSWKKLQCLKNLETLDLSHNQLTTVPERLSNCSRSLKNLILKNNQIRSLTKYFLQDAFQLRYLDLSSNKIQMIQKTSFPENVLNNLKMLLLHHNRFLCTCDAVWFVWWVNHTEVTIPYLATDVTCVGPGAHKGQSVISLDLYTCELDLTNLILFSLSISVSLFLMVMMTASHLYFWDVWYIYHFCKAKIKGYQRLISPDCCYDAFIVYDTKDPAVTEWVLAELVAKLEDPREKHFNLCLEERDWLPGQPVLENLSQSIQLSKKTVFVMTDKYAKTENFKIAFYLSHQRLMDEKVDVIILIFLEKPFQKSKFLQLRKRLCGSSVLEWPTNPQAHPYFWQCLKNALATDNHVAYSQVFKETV
Outline: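 Dose-response testing from 0.05 nM to 50 μM final was done on reporter cells for 22 hours at 37° C. Secreted SEAP was then detected, and inhibition was calculated as percent reduction of the agonist-plus-DMSO signal compared with wells given a known inhibitor.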

human TLR9 = target: T2, human TLR9 (Homo sapiens, UniProt Q9NR96); assay: TLR9 inhibition reporter assay (HEK-Blue SEAP); type: cell-based; settings: HEK-Blue cells overexpressing human TLR9, ODN2006 5 nM, 22 hour incubation
T2 construct: host or cells: HEK-Blue cells
T2 sequence (Q9NR96 26-1032): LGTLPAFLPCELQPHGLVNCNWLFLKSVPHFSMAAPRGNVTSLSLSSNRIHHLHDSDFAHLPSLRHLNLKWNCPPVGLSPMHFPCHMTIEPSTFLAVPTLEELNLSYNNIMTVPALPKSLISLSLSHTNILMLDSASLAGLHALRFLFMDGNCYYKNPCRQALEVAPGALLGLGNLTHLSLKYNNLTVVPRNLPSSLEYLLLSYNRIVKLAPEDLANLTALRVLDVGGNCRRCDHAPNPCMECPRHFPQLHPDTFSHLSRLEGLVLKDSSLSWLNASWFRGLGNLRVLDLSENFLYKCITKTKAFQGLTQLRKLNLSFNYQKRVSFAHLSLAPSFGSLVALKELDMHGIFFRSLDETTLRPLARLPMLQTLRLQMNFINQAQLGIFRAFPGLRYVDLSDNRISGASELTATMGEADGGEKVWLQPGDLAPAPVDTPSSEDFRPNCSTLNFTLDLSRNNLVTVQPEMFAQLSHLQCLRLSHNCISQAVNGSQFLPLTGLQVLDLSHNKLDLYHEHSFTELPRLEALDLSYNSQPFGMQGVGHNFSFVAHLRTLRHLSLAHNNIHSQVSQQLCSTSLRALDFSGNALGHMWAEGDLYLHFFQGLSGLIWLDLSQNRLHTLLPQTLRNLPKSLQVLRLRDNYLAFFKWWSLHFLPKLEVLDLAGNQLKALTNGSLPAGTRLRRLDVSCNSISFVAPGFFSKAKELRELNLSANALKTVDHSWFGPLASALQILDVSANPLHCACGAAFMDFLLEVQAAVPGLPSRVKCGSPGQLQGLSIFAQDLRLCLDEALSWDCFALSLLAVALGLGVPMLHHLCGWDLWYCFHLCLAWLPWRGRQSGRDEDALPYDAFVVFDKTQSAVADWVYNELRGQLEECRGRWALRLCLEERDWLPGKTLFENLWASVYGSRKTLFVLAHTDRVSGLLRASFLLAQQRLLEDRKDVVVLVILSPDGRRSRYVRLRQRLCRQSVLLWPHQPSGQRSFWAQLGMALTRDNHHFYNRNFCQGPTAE
Outline: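 Screening used HEK-Blue cells overexpressing one human TLR (7, 8 or 9) and an IFN-β minimal promoter–NF-κB/AP-1 SEAP construct. Stimulation lasted 22 h at 37 °C with receptor-specific agonist: gardiquimod, R848 or ODN2006 at 7.5 μM, 15.9 μM and 5 nM.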

Row | Structure (SMILES) | IC50 (human TLR7) | IC50 (human TLR9)
1 | COc1cc(-c2cc3[nH]c(=O)n([C@H]4CC[C@@H](N(C)C)CC4)c3cc2C)cn2ncnc12 [Example 48, 1-((1s,4s)-4-(dimethylamino)cyclohexyl)-5-(8-methoxy-[1,2,4]triazolo[1,5-a]pyridin-6-yl)-6-methyl-1,3-dihydro-2H-benzo[d]imidazol-2-one] | 0.0148 µM | 3.77 µM
2 | COc1cc(-c2cc3[nH]c(=O)n([C@H]4CC[C@@H](NC5CCOCC5)CC4)c3cc2C)cn2ncnc12 [Example 49, 5-(8-methoxy-[1,2,4]triazolo[1,5-a]pyridin-6-yl)-6-methyl-1-((1s,4s)-4-((tetrahydro-2H-pyran-4-yl)amino)cyclohexyl)-1,3-dihydro-2H-benzo[d]imidazol-2-one] | 0.0182 µM | 7.43 µM
3 | COc1cc(-c2cc3[nH]c(=O)n([C@H]4CC[C@@H](NC(C)C)CC4)c3cc2C)cn2ncnc12 [Example 50, 1-((1s,4s)-4-(isopropylamino)cyclohexyl)-5-(8-methoxy-[1,2,4]triazolo[1,5-a]pyridin-6-yl)-6-methyl-1,3-dihydro-2H-benzo[d]imidazol-2-one] | 0.0385 µM | 10.9 µM
4 | COc1cc(-c2cc3[nH]c(=O)n([C@@H]4CCCN(C)C4)c3cc2C)cn2ncnc12 [Example 51, (R)-5-(8-methoxy-[1,2,4]triazolo[1,5-a]pyridin-6-yl)-6-methyl-1-(1-methylpiperidin-3-yl)-1,3-dihydro-2H-benzo[d]imidazol-2-one] | 0.0325 µM | 8.39 µM
5 | CCN1CCC[C@@H](n2c(=O)[nH]c3cc(-c4cc(OC)c5ncnn5c4)c(C)cc32)C1 [Example 52, (R)-1-(1-ethylpiperidin-3-yl)-5-(8-methoxy-[1,2,4]triazolo[1,5-a]pyridin-6-yl)-6-methyl-1,3-dihydro-2H-benzo[d]imidazol-2-one] | 0.0653 µM | 2.96 µM
6 | COc1cc(-c2cc3[nH]c(=O)n([C@@H]4CCCN(C(C)C)C4)c3cc2C)cn2ncnc12 [Example 53, (R)-1-(1-isopropylpiperidin-3-yl)-5-(8-methoxy-[1,2,4]triazolo[1,5-a]pyridin-6-yl)-6-methyl-1,3-dihydro-2H-benzo[d]imidazol-2-one] | 0.033 µM | 3.75 µM
7 | CCCN1CCC[C@@H](n2c(=O)[nH]c3cc(-c4cc(OC)c5ncnn5c4)c(C)cc32)C1 [Example 54, (R)-5-(8-methoxy-[1,2,4]triazolo[1,5-a]pyridin-6-yl)-6-methyl-1-(1-propylpiperidin-3-yl)-1,3-dihydro-2H-benzo[d]imidazol-2-one] | 0.0292 µM | 4.23 µM
8 | COc1cc(-c2cc3[nH]c(=O)n([C@@H]4CCCN(CC5CC5)C4)c3cc2C)cn2ncnc12 [Example 55, (R)-1-(1-(cyclopropylmethyl)piperidin-3-yl)-5-(8-methoxy-[1,2,4]triazolo[1,5-a]pyridin-6-yl)-6-methyl-1,3-dihydro-2H-benzo[d]imidazol-2-one] | 0.0231 µM | 5.55 µM
9 | COc1cc(-c2cc3[nH]c(=O)n([C@@H]4CCCN(CC(C)C)C4)c3cc2C)cn2ncnc12 [Example 56, (R)-1-(1-isobutylpiperidin-3-yl)-5-(8-methoxy-[1,2,4]triazolo[1,5-a]pyridin-6-yl)-6-methyl-1,3-dihydro-2H-benzo[d]imidazol-2-one] | 0.00532 µM | 4.81 µM
10 | COc1cc(-c2cc3[nH]c(=O)n([C@@H]4CCCN(CC5CCOCC5)C4)c3cc2C)cn2ncnc12 [Example 57, (R)-5-(8-methoxy-[1,2,4]triazolo[1,5-a]pyridin-6-yl)-6-methyl-1-(1-((tetrahydro-2H-pyran-4-yl)methyl)piperidin-3-yl)-1,3-dihydro-2H-benzo[d]imidazol-2-one] | 0.00811 µM | 5.94 µM
11 | COc1cc(-c2cc3[nH]c(=O)n([C@H]4CC[C@@H](NC5CCC5)CC4)c3cc2C)cn2ncnc12 [Example 58, 1-((1s,4s)-4-(cyclobutylamino)cyclohexyl)-5-(8-methoxy-[1,2,4]triazolo[1,5-a]pyridin-6-yl)-6-methyl-1,3-dihydro-2H-benzo[d]imidazol-2-one] | 0.0162 µM | 4.12 µM
